“And” between values parts separate entries of the source, which are not always exact repeats. Equal entries are not always repeated. Where two headings read alike, the source gives them in different places.
How the values were obtained:
[1] = test system: P. falciparum Dd2-2D4; test: P. falciparum asexual blood stage (ABS) growth assay, SYBR Green, 72 h, wild-type parasites; type: cell-based, Plasmodium falciparum; settings: Plasmodium falciparum, DD2; SI Fig 16b; values on -log scale; read-out: ABS - Dd2-2D4 (converted)
[2] = target: T1, PfcProRS (Plasmodium falciparum, UniProt Q8I5R7); type: binding; settings: for dose-response signal (normalized), SI Fig 8: single replicates
T1 construct: made in house; host or cells: E. coli SoluBL-21

[3] = target: HsProRS (Homo sapiens, UniProt P07814); test: TR-FRET ligand displacement assay with tracer MAT379 (CoraFluor-1-Halo and anti-His6 antibody formats); type: binding; parameters: made in house; host or cells: E. coli SoluBL-21; settings: for TR-FRET dose-response, normalized signal (SI Fig 11): individual replicates
Sequence of HsProRS (P07814 996-1512): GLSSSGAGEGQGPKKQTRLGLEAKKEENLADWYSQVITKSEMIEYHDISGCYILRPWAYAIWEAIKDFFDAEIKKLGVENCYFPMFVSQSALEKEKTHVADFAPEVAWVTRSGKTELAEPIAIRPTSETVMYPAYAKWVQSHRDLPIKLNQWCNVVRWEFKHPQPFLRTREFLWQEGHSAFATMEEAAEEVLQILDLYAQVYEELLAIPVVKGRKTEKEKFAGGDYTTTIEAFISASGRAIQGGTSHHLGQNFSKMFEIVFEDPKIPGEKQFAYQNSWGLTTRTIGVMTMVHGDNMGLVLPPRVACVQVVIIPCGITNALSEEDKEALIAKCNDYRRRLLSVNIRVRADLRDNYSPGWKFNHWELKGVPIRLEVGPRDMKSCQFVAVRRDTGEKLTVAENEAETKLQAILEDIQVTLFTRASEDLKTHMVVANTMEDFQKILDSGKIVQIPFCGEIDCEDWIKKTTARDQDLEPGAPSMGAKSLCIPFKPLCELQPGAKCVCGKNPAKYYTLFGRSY

T1 sequence (Q8I5R7 249-746): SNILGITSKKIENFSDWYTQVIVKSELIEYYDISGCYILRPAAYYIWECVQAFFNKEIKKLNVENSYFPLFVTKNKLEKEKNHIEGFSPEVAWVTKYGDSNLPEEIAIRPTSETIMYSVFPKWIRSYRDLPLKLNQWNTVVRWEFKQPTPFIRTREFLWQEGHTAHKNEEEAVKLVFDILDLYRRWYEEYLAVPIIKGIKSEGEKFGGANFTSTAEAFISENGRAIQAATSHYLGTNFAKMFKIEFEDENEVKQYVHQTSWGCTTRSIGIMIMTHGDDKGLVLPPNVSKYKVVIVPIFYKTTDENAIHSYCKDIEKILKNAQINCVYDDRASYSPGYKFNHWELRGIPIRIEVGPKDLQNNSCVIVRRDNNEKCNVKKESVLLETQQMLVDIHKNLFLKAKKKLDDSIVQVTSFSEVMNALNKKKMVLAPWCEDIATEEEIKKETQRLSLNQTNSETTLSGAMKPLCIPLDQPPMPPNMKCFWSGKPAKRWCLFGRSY

CC(C)(C)OC(=O)NCC1CCN(C(=O)Nc2nccnc2C(=O)NC2Cc3ccccc3C2)CC1 [compound 9]
EC50 [1]: 6.58 µM
dose-response signal (normalized), SI Fig 8 ([2]; Log[inhibitor] (M) -5.000): 8.25E-02 and 7.54E-02 and 9.29E-02
dose-response signal (normalized), SI Fig 8 ([2]; Log[inhibitor] (M) -5.301): 2.45E-01 and 1.32E-01 and 2.09E-01
dose-response signal (normalized), SI Fig 8 ([2]; Log[inhibitor] (M) -5.601): 4.06E-01 and 4.09E-01 and 3.31E-01
dose-response signal (normalized), SI Fig 8 ([2]; Log[inhibitor] (M) -5.904): 5.21E-01 and 6.14E-01 and 5.87E-01
dose-response signal (normalized), SI Fig 8 ([2]; Log[inhibitor] (M) -6.208): 7.48E-01 and 8.25E-01 and 7.95E-01
dose-response signal (normalized), SI Fig 8 ([2]; Log[inhibitor] (M) -6.509): 8.42E-01 and 8.68E-01 and 7.28E-01
dose-response signal (normalized), SI Fig 8 ([2]; Log[inhibitor] (M) -6.796): 9.11E-01 and 1.04E+00 and 1.02E+00
dose-response signal (normalized), SI Fig 8 ([2]; Log[inhibitor] (M) -7.108): 9.58E-01 and 9.39E-01 and 1.04E+00
dose-response signal (normalized), SI Fig 8 ([2]; Log[inhibitor] (M) -7.409): 9.93E-01 and 1.06E+00 (2×)
dose-response signal (normalized), SI Fig 8 ([2]; Log[inhibitor] (M) -7.710): 1.14E+00 and 1.04E+00 and 9.88E-01
dose-response signal (normalized), SI Fig 8 ([2]; Log[inhibitor] (M) -8.000): 9.88E-01 and 1.04E+00 and 1.02E+00
dose-response signal (normalized), SI Fig 8 ([2]; Log[inhibitor] (M) -8.301): 9.59E-01 and 9.72E-01 and 9.39E-01
dose-response signal (normalized), SI Fig 8 ([2]; Log[inhibitor] (M) -8.602): 9.15E-01 and 9.90E-01 and 9.70E-01
dose-response signal (normalized), SI Fig 8 ([2]; Log[inhibitor] (M) -9.000): 9.95E-01 and 1.01E+00 and 9.84E-01
dose-response signal (normalized), SI Fig 8 ([2]; Log[inhibitor] (M) -9.301): 1.06E+00 and 9.86E-01 and 9.57E-01
PfcProRS -- best Kd ([2]; SI Fig 16a, values on -log scale): 6.452
HsProRS % signal at 10 μM, + 100 μM proline ([3]; + 100 μM proline, 10 μM): 51.7%
Kd ([3]; HsProRS (KD [nM]) mean, no added proline/ATP (-)): 2510 nM
normalized TR-FRET ligand displacement signal, dose-response replicates (SI Fig 6) ([3]; Log[inhibitor] (M) -5.000): 3.85E-02 and 1.39E-01 and 8.67E-02
TR-FRET dose-response, normalized signal (SI Fig 11) ([3]; Log[inhibitor] (M) -5.000): 2.52E-01 and 2.44E-01 and 2.56E-01
normalized TR-FRET ligand displacement signal, dose-response replicates (SI Fig 6) ([3]; Log[inhibitor] (M) -5.301): 2.62E-01 and 9.25E-02 and 2.11E-01
TR-FRET dose-response, normalized signal (SI Fig 11) ([3]; Log[inhibitor] (M) -5.301): 3.68E-01 and 3.83E-01 and 3.86E-01
normalized TR-FRET ligand displacement signal, dose-response replicates (SI Fig 6) ([3]; Log[inhibitor] (M) -5.601): 2.47E-01 and 2.95E-01 and 3.23E-01
TR-FRET dose-response, normalized signal (SI Fig 11) ([3]; Log[inhibitor] (M) -5.601): 5.41E-01 and 5.42E-01 and 6.20E-01
normalized TR-FRET ligand displacement signal, dose-response replicates (SI Fig 6) ([3]; Log[inhibitor] (M) -5.904): 5.08E-01 and 5.80E-01 and 5.13E-01
TR-FRET dose-response, normalized signal (SI Fig 11) ([3]; Log[inhibitor] (M) -5.904): 6.85E-01 and 6.21E-01 and 6.49E-01
normalized TR-FRET ligand displacement signal, dose-response replicates (SI Fig 6) ([3]; Log[inhibitor] (M) -6.208): 7.02E-01 and 7.67E-01 and 6.77E-01
TR-FRET dose-response, normalized signal (SI Fig 11) ([3]; Log[inhibitor] (M) -6.208): 7.39E-01 and 7.74E-01 and 7.75E-01
normalized TR-FRET ligand displacement signal, dose-response replicates (SI Fig 6) ([3]; Log[inhibitor] (M) -6.509): 8.58E-01 and 7.92E-01 and 7.62E-01
TR-FRET dose-response, normalized signal (SI Fig 11) ([3]; Log[inhibitor] (M) -6.509): 8.32E-01 and 8.29E-01 and 7.90E-01
normalized TR-FRET ligand displacement signal, dose-response replicates (SI Fig 6) ([3]; Log[inhibitor] (M) -6.796): 9.92E-01 and 1.07E+00 and 1.01E+00
TR-FRET dose-response, normalized signal (SI Fig 11) ([3]; Log[inhibitor] (M) -6.796): 8.79E-01 and 8.03E-01 and 8.17E-01
normalized TR-FRET ligand displacement signal, dose-response replicates (SI Fig 6) ([3]; Log[inhibitor] (M) -7.108): 8.83E-01 and 1.03E+00 and 1.07E+00
TR-FRET dose-response, normalized signal (SI Fig 11) ([3]; Log[inhibitor] (M) -7.108): 8.15E-01 and 8.66E-01 and 8.33E-01
normalized TR-FRET ligand displacement signal, dose-response replicates (SI Fig 6) ([3]; Log[inhibitor] (M) -7.409): 9.70E-01 and 9.46E-01 and 9.42E-01
TR-FRET dose-response, normalized signal (SI Fig 11) ([3]; Log[inhibitor] (M) -7.409): 8.81E-01 and 9.27E-01 and 8.52E-01
normalized TR-FRET ligand displacement signal, dose-response replicates (SI Fig 6) ([3]; Log[inhibitor] (M) -7.710): 9.63E-01 and 9.72E-01 and 1.02E+00
TR-FRET dose-response, normalized signal (SI Fig 11) ([3]; Log[inhibitor] (M) -7.710): 8.59E-01 and 8.71E-01 and 8.69E-01
normalized TR-FRET ligand displacement signal, dose-response replicates (SI Fig 6) ([3]; Log[inhibitor] (M) -8.000): 9.31E-01 and 9.57E-01 and 9.75E-01
TR-FRET dose-response, normalized signal (SI Fig 11) ([3]; Log[inhibitor] (M) -8.000): 9.54E-01 and 9.12E-01 and 8.65E-01
normalized TR-FRET ligand displacement signal, dose-response replicates (SI Fig 6) ([3]; Log[inhibitor] (M) -8.301): 9.41E-01 and 8.96E-01 and 8.89E-01
TR-FRET dose-response, normalized signal (SI Fig 11) ([3]; Log[inhibitor] (M) -8.301): 9.04E-01 and 9.25E-01 and 8.91E-01
normalized TR-FRET ligand displacement signal, dose-response replicates (SI Fig 6) ([3]; Log[inhibitor] (M) -8.602): 9.58E-01 and 9.45E-01 and 9.24E-01
TR-FRET dose-response, normalized signal (SI Fig 11) ([3]; Log[inhibitor] (M) -8.602): 9.14E-01 and 8.78E-01 and 9.05E-01
normalized TR-FRET ligand displacement signal, dose-response replicates (SI Fig 6) ([3]; Log[inhibitor] (M) -9.000): 1.05E+00 and 8.77E-01 and 8.55E-01
TR-FRET dose-response, normalized signal (SI Fig 11) ([3]; Log[inhibitor] (M) -9.000): 8.65E-01 and 8.66E-01 and 9.64E-01
normalized TR-FRET ligand displacement signal, dose-response replicates (SI Fig 6) ([3]; Log[inhibitor] (M) -9.301): 8.65E-01 and 9.01E-01 and 8.87E-01
TR-FRET dose-response, normalized signal (SI Fig 11) ([3]; Log[inhibitor] (M) -9.301): 9.03E-01 and 9.18E-01 and 8.96E-01
